Read-outs that look alike come from different tables or passages of the source. Marks after values point to notes of the source that are not given here.
Experiments:
[1] = target: T1, MtInhA:NADH binary complex (Mycobacterium tuberculosis, UniProt P9WGR1); test: biochemical; assay type: binding; settings: for Kd: 25 °C (298.15 K); for ΔG: estimated from ΔH and ΔS (Eq. 7); for ΔH / ΔS: van't Hoff analysis, 15–30 °C
T1 construct: made in house

M. tuberculosis H37Rv = test: microbe, parasite or virus in culture; assay type: cell-based; settings: Mycobacterium tuberculosis, 216 h, 7 days + 48 h resazurin, read-out: MIC H37Rv
MtInhA [2] = target: T2, MtInhA (Mycobacterium tuberculosis, UniProt P9WGR1); test: MtInhA enzyme inhibition by steady-state kinetics (NADH oxidation at 340 nm); assay type: biochemical; settings: for mode of inhibition with respect to NADH / mode of inhibition with respect to DD-CoA: Lineweaver-Burk plot; for IC50: NADH 60 μM, DD-CoA 45 μM, 25 °C, Pipes pH 7.0, read-out: IC50; for Ki: EI complex; for Ki DD-CoA Kii / Ki NADH Kii: ESI complex; for inhibitory activity towards MtInhA: IC50 screening
T2 construct: made in house
Method: In order to assess the relative potency of the compounds, inhibition studies were performed by steady-state kinetic studies using a UV-2550 UV/Visible spectrophotometer (Shimadzu^©), monitoring the NADH oxidation at 340 nm (εβ-NADH = […]), in the forward direction. Experiments were performed at 25 °C, in 100 mM Pipes pH 7.0 and were started with the addition of the 2.2 μM MtInhA to a total reaction volume of 500 μL, and monitoring the change in absorbance for 1 min. […] This is needed as IC50 and classical competitive, non-competitive and uncompetitive inhibition modes follow a rapid equilibrium process. Accordingly, MtInhA (2.2 μM) was pre-incubated with inhibitor (10 μM), aliquots were taken at different times and added to the reaction mixture containing NADH (60 μM) and DD-CoA (45 μM), and initial velocity measurements were plotted as a function of time of pre-incubation[6]. Control experiments were carried out pre-incubating MtInhA (2.2 μM) with DMSO (5%) in the absence of inhibitors, and initial velocity measured as a function of time of pre-incubation[6].
The IC50 value, which defines the concentration of inhibitor required to […], was calculated for each compound. The maximal rate for the enzyme reaction was determined in the absence of inhibitor, in the presence of fixed non-saturating concentration of NADH (60 μM ≅ Km) and DD-CoA (45 μM ≅ Km)[10][11][14]. The reaction velocity was analyzed as the percentage of inhibition as a function of inhibitor concentration and data were fitted to Eq 1.
The most promising compounds were further evaluated to assess the inhibition profile and to determine the inhibition constant (Ki). Initial rates were measured as a function of NADH concentration (10–160 μM) at fixed non-saturating DD-CoA concentration (45 μM) and fixed-varied inhibitor concentrations (0.5–120 μM). The Ki values towards NADH were calculated using the uncompetitive equation (Eq. 2) for compounds Labio_6 and Labio_16, in which [I] is the inhibitor concentration, [S] is the substrate concentration, Km and Vmax are, respectively, the Michaelis-Menten constant and maximum velocity, and Kii is the overall inhibition constant for the ESI complex. The Ki of Labio_03 was determined previously.
For compounds Labio_2, Labio_11, Labio_15 and Labio_17, the Ki values with respect to NADH were calculated using Eq. 3, which describes a non-competitive inhibition, where [I] is the inhibitor concentration, [S] is the substrate concentration, Km and Vmax are, respectively, the Michaelis-Menten constant and maximum velocity, Kii is the overall inhibition constant for the ESI complex and Kis is the overall inhibition constant for the EI complex.
Inhibition studies were also carried out in the presence of fixed non-saturating concentration of NADH (60 μM) and fixed-varied inhibitor concentrations (0.5–120 μM), when DD-CoA was the variable substrate (15–135 μM). For compounds Labio_2, Labio_6, and Labio_16, the inhibition constants for the DD-CoA substrate were determined using Eq. 3 for the non-competitive mode of inhibition. For compounds Labio_11, Labio_15 and Labio_17, the Ki for this substrate were calculated from data fitting to the equation for competitive inhibition (Eq. 4), in which [I] is the inhibitor concentration, [S] is the substrate concentration, Km and Vmax are, respectively, the Michaelis-Menten constant and maximum velocity, and Kis is the overall inhibition constant for the EI complex.

[3] = system: M. tuberculosis H37Rv in infected RAW 264.7 macrophages; test: Intracellular activity in M. tuberculosis-infected macrophages (CFU); assay type: cell-based, Mycobacterium tuberculosis; settings: 5 μM; for decrease in CFU counts compared to early control / decrease in CFU counts compared to untreated late control: 5 days; for Mean log CFU/well ± SEM: 5 days of incubation
MtInhA [4] = target: T2, MtInhA; set-up: method as in PMID 23889525; settings: ESI complex; determined previously ref 12; cited from earlier work
[5] = varied DD-CoA 15–135 μM, fixed NADH 60 μM, read-out: Ki DD-CoA Kis
[6] = varied DD-CoA 15–135 μM, fixed NADH 60 μM
[7] = varied NADH 10–160 μM, fixed DD-CoA 45 μM, read-out: Ki NADH Kis
[8] = varied NADH 10–160 μM, fixed DD-CoA 45 μM

T2 sequence (P9WGR1 whole entry, looked up): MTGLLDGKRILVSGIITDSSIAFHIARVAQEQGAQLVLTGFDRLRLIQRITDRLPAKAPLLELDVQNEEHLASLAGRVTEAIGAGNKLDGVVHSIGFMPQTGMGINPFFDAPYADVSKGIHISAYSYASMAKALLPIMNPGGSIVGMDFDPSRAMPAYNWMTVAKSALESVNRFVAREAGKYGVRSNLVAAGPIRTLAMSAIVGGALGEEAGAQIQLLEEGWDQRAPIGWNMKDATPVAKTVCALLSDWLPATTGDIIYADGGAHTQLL
T1 sequence (P9WGR1 whole entry, looked up, one chain of several): as the sequence (P9WGR1 whole entry, looked up) above

Structure (SMILES)	Kd [1]	ΔG [1]	ΔH [1]	ΔS [1]	MIC (M. tuberculosis H37Rv)	mode of inhibition with respect to NADH (MtInhA [2]; fixed DD-CoA 45 μM)	mode of inhibition with respect to DD-CoA (MtInhA [2]; fixed NADH 60 μM)	IC50 (MtInhA [2])	inhibitory activity towards MtInhA (MtInhA [2])	other results
Cc1nc([C@H](C)NC(=O)c2ccc3oc(Cc4ccccc4F)nc3c2)cs1 [Labio_2]	2.2 ± 0.2 µM	-32.2 ± 2.9 kJ/mol	-158 ± 11.3 kJ/mol	−100.5 ± 9.2 cal.mol^−1.K^−1	> 100 mg/L	non-competitive	non-competitive	18 ± 2 µM	–	Ki (MtInhA [2]; [5]): 0.7 ± 0.4 µM; Ki DD-CoA Kii (MtInhA [2]; [6]): 0.7 ± 0.2 µM; Ki (MtInhA [2]; [7]): 2.3 ± 0.8 µM; Ki NADH Kii (MtInhA [2]; [8]): 2.2 ± 0.6 µM
Cc1cc(NC(=O)Cc2csc(-c3ccsc3)n2)ccc1Br [Labio_9]	–	–	–	–	> 10 mg/L	–	–	–	no inhibitory activity	–
O=C(CNC(=O)c1ccc2c(c1)OCO2)Nc1ccc(Nc2ccccc2)cc1 [Labio_12]	–	–	–	–	> 100 mg/L	–	–	–	no inhibitory activity	–
Cc1ccc(N2C[C@@H](c3nc(-c4ccc(OC(C)C)cc4)no3)CC2=O)cc1C [Labio_8]	–	–	–	–	> 10 mg/L	–	–	–	no inhibitory activity	–
Cc1cccc(NC(=O)/C(C#N)=C/c2ccc(OCc3ccccc3)cc2)n1 [Labio_7]	–	–	–	–	> 10 mg/L	–	–	–	no inhibitory activity	–
COc1ccc(-c2n[nH]cc2/C=N\NC(=O)c2cc(C)nc3c(C)cccc23)cc1 [Labio_11]	17.9 ± 1.1 µM	-27.2 ± 3.8 kJ/mol	-78.2 ± 7.11 kJ/mol	−40.9 ± 5.9 cal.mol^−1.K^−1	> 100 mg/L	non-competitive	competitive	87 ± 3 µM	–	Ki (MtInhA [2]; [5]): 27 ± 3 µM; Ki (MtInhA [2]; [7]): 44 ± 14 µM; Ki NADH Kii (MtInhA [2]; [8]): 41 ± 6 µM
CO[C@H]1/C=C/O[C@@]2(C)Oc3c(C)c(O)c4c(O)c(c(/C=N/N5CCN(C)CC5)c(O)c4c3C2=O)NC(=O)/C(C)=C\C=C\[C@H](C)[C@H](O)[C@@H](C)[C@@H](O)[C@@H](C)[C@H](OC(C)=O)[C@@H]1C [Rifampin]	–	–	–	–	–	–	–	–	–	decrease in CFU counts compared to early control [3]: 1.7 log10; decrease in CFU counts compared to untreated late control [3]: 2.3 log10; Mean log CFU/well ± SEM [3]: 2.4 ± 0.1***^+++ log CFU/well
COc1ccc(CCC(=O)Nc2nn3cc(-c4ccccc4)nc3s2)cc1 [Labio_6]	3.1 ± 0.4 µM	-31.8 ± 2.9 kJ/mol	-187 ± 15.1 kJ/mol	−124.2 ± 12.3 cal.mol^−1.K^−1	> 10 mg/L	uncompetitive	non-competitive	9.8 ± 0.9 µM	–	Ki (MtInhA [2]; [5]): 0.7 ± 0.2 µM; Ki DD-CoA Kii (MtInhA [2]; [6]): 0.7 ± 0.1 µM; Ki NADH Kii (MtInhA [2]; [8]): 1.8 ± 0.2 µM
NNC(=O)c1ccncc1 [INH, Isoniazid]	–	–	–	–	0.31 mg/L	–	–	–	–	decrease in CFU counts compared to early control [3]: 1.7 log10; decrease in CFU counts compared to untreated late control [3]: 2.3 log10; Mean log CFU/well ± SEM [3]: 2.4 ± 0.1***^+++ log CFU/well
Cc1ccc(N2C[C@@H](c3nc(-c4ccc(OC(C)C)cc4)no3)CC2=O)c(C)c1 [Labio_13]	–	–	–	–	> 10 mg/L	–	–	–	no inhibitory activity	–
CCCOc1ccc(-c2nnc(NC(=O)Nc3ccccc3C)s2)cc1 [Labio_3]	4.4 ± 0.4 µM	-31 ± 2.9 kJ/mol	-116 ± 7.53 kJ/mol	−68.5 ± 6.3 cal.mol^−1.K^−1	11.2 mg/L	uncompetitive	uncompetitive	19 ± 2 µM	–	Ki DD-CoA Kii (MtInhA [4]): 20 ± 2 µM; Ki NADH Kii (MtInhA [4]): 24 ± 3 µM
COc1cccc(-c2cccc(NC(=O)C3CCN(CC=C(C)C)CC3)c2)c1 [Labio_20]	–	–	–	–	23.8 mg/L	–	–	–	no inhibitory activity	–
O=C(Cc1csc(-c2ccccn2)n1)Nc1ccccc1Oc1ccccc1 [Labio_1]	–	–	–	–	> 10 mg/L	–	–	–	no inhibitory activity	–
CCN(CC)Cc1cc(-c2ccnc3cc(Cl)ccc23)ccc1O [Labio_15]	29.4 ± 2.1 µM	-25.9 ± 6.28 kJ/mol	-40.2 ± 3.3 kJ/mol	−11.5 ± 2.8 cal.mol^−1.K^−1	25 mg/L	non-competitive	competitive	83 ± 2 µM	–	Ki (MtInhA [2]; [5]): 74 ± 8 µM; Ki (MtInhA [2]; [7]): 110 ± 26 µM; Ki NADH Kii (MtInhA [2]; [8]): 110 ± 11 µM

From article PMC5402281, “Functional, thermodynamics, structural and biological studies of in silico-identified inhibitors of Mycobacterium tuberculosis enoyl-ACP(CoA) reductase enzyme” (Scientific Reports, 2017)
